Results reported in patent publication US8835476B2, “Synthesis of novel antimicrobials” (priority 2005, dated 2014).

Tests used:
S. simulans ATCC 27848 = test: Broth microdilution MIC, ATCC strains; format: cell-based; details: Staphylococcus simulans, ATCC27848, read-out: MIC (growth inhibition, microdilution method)
Outline: (§1)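 NCCLS M7-A6 broth microdilution, inoculum 5×10^5 CFU/ml, with DMSO controls; read after 16 to 20 hours at 35° C in ambient air. MIC is lowest concentration inhibiting visible growth; clinical strains were outpatient urinary isolates from NAUTICA, alongside ATCC reference strains.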

P. vulgaris ATCC 49132 = test: Broth microdilution MIC, ATCC strains; format: cell-based; details: Proteus vulgaris, ATCC49132; P. vulgaris ATCC 49132; read-out: MIC (growth inhibition, microdilution method)
Outline: as §1

B. cepacia ATCC 25416 = test: Broth microdilution MIC, ATCC strains; format: cell-based; details: Burkholderia cepacia, ATCC25416; B. cepacia ATCC 25416; read-out: MIC (growth inhibition, microdilution method)
Outline: as §1

E. aerogenes ATCC 13048 = test: Broth microdilution MIC, ATCC strains; format: cell-based; details: Klebsiella aerogenes, ATCC13048; E. aerogenes ATCC 13048; read-out: MIC (growth inhibition, microdilution method)
Outline: as §1

[1] = system: S. maltophilia ATCC 13637; test: Broth microdilution MIC, ATCC strains; format: cell-based; details: Stenotrophomonas maltophilia, ATCC13637; S. maltophilia ATCC 13637; read-out: MIC (growth inhibition, microdilution method)
Outline: as §1

[2] = system: Ps. aeruginosa ATCC 27853; test: Broth microdilution MIC, ATCC strains; format: cell-based; details: Pseudomonas aeruginosa, ATCC27853; Ps. aeruginosa ATCC 27853; read-out: MIC (growth inhibition, microdilution method)
Outline: as §1

Pr. stuartii ATCC 33672 = test: Broth microdilution MIC, ATCC strains; format: cell-based; details: Providencia stuartii, ATCC33672; Pr. stuartii ATCC 33672; read-out: MIC (growth inhibition, microdilution method)
Outline: as §1

E. faecium ATCC 35667 = test: Broth microdilution MIC, ATCC strains; format: cell-based; details: Enterococcus faecium, ATCC35667, read-out: MIC (growth inhibition, microdilution method)
Outline: as §1

S. aureus ATCC 29213 = test: Broth microdilution MIC, ATCC strains; format: cell-based; details: Staphylococcus aureus, ATCC29213, S. aureus ATCC 29213; read-out: MIC (growth inhibition, microdilution method)
Outline: as §1

[3] = system: S. epidermidis ATCC 14990; test: Broth microdilution MIC, ATCC strains; format: cell-based; details: Staphylococcus epidermidis, ATCC14990; S. epidermidis ATCC 14990; read-out: MIC (growth inhibition, microdilution method)
Outline: as §1

[4] = system: S. liquefaciens ATCC 27592; test: Broth microdilution MIC, ATCC strains; format: cell-based; details: S. liquefaciens ATCC 27592; read-out: MIC (growth inhibition, microdilution method)
Outline: as §1

[5] = system: Ps. aeruginosa clinical isolates; test: Broth microdilution MIC, clinical isolate strains (NAUTICA); format: cell-based; details: Table 4B; each table row is one clinical isolate; unit assumed
Outline: as §1

SMILES: CCOC(=O)c1cc(-c2nnn(C)n2)c(-c2ccc(F)cc2)s1 [DNM-125, ethyl 5-(4-fluorophenyl)-4-(2-methyl-2H-tetrazol-5-yl)thiophene-2-carboxylate]
- MIC (S. simulans ATCC 27848): > 16 µg/mL
- MIC (P. vulgaris ATCC 49132): > 16 µg/mL
- MIC (B. cepacia ATCC 25416): > 16 µg/mL
- MIC (E. aerogenes ATCC 13048): > 16 µg/mL
- MIC [1]: > 16 µg/mL
- MIC [2]: > 16 µg/mL
- MIC (Pr. stuartii ATCC 33672): > 16 µg/mL
- MIC (E. faecium ATCC 35667): > 16 µg/mL
- MIC (S. aureus ATCC 29213): > 16 µg/mL
- MIC [3]: > 16 µg/mL
- MIC [4]: > 16 µg/mL
- melting point: 108 to 110 °C
- MIC, PS. AER [5]: > 16 µg/mL
